According to ChEMBL document CHEMBL1201861, “Genomics of Drug Sensitity in Cancer screening data, Wellcome Trust Sanger Institute”:

Key:
Assay in all cases: cells
Assay type in all cases: functional, cell-based, Homo sapiens
A204 = conditions: Homo sapiens, A204;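 further: growth inhibition of human A204 cells, read out with a cell viability assay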
Description: SANGER: Inhibition of human A204 cell growth in a cell viability assay.

NCI-H2291 = conditions: Homo sapiens, NCI-H2291
Description: SANGER: Inhibition of human NCI-H2291 cell growth in a cell viability assay.

T-24 = conditions: Homo sapiens, T-24;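 further: growth inhibition of T-24 cells, read out with a cell viability assay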
Description: SANGER: Inhibition of human T-24 cell growth in a cell viability assay.

SNU-423 = conditions: Homo sapiens, SNU-423
Description: SANGER: Inhibition of human SNU-423 cell growth in a cell viability assay.

KYSE-510 = conditions: Homo sapiens, KYSE-510;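 further: cell viability readout used to measure how strongly growth of the cell line is suppressed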
Description: SANGER: Inhibition of human KYSE-510 cell growth in a cell viability assay.

PA-1 = conditions: Homo sapiens, PA-1;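 further: IC50 for suppression of PA-1 cell proliferation, determined with a cell viability read-out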
Description: SANGER: Inhibition of human PA-1 cell growth in a cell viability assay.

VMRC-RCZ = conditions: Homo sapiens, VMRC-RCZ;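 further: growth inhibition measured with a cell viability assay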
Description: SANGER: Inhibition of human VMRC-RCZ cell growth in a cell viability assay.

MDA-MB-157 = conditions: Homo sapiens, MDA-MB-157
Description: SANGER: Inhibition of human MDA-MB-157 cell growth in a cell viability assay.

MEL-JUSO = conditions: Homo sapiens, MEL-JUSO;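 further: growth inhibition of human MEL-JUSO cells, read out with a cell viability assay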
Description: SANGER: Inhibition of human MEL-JUSO cell growth in a cell viability assay.

ME-180 = conditions: Homo sapiens, ME-180;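 further: cell viability assay measuring growth inhibition of ME-180 cells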
Description: SANGER: Inhibition of human ME-180 cell growth in a cell viability assay.

NCI-H1623 = conditions: Homo sapiens, NCI-H1623;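 further: cell viability assay used as the read-out for growth inhibition of NCI-H1623 cells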
Description: SANGER: Inhibition of human NCI-H1623 cell growth in a cell viability assay.

WM-115 = conditions: Homo sapiens, WM-115
Description: SANGER: Inhibition of human WM-115 cell growth in a cell viability assay.

OAW-28 = conditions: Homo sapiens, OAW-28;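 further: growth inhibition of OAW-28 cells, read out with a cell viability assay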
Description: SANGER: Inhibition of human OAW-28 cell growth in a cell viability assay.

SW948 = conditions: Homo sapiens, SW948;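 further: growth inhibition of SW948 cells, read out with a cell viability assay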
Description: SANGER: Inhibition of human SW948 cell growth in a cell viability assay.

HN = conditions: Homo sapiens, HN
Description: SANGER: Inhibition of human HN cell growth in a cell viability assay.

CFPAC-1 = conditions: Homo sapiens, CFPAC-1;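 further: cell viability readout used to gauge suppression of CFPAC-1 cell proliferation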
Description: SANGER: Inhibition of human CFPAC-1 cell growth in a cell viability assay.

KU-19-19 = conditions: Homo sapiens, KU-19-19
Description: SANGER: Inhibition of human KU-19-19 cell growth in a cell viability assay.

AU565 = conditions: Homo sapiens, AU565;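 further: cell viability assay measuring growth inhibition of human AU565 cells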
Description: SANGER: Inhibition of human AU565 cell growth in a cell viability assay.

ASPC1 = conditions: Homo sapiens, ASPC1;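 further: growth inhibition of AsPC-1 cells, read out with a cell viability assay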
Description: SANGER: Inhibition of human AsPC-1 cell growth in a cell viability assay.

C32 = conditions: Homo sapiens, C32;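 further: cell viability assay, with IC50 reflecting inhibition of C32 cell growth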
Description: SANGER: Inhibition of human C32 cell growth in a cell viability assay.

SiHa = conditions: Homo sapiens, SiHa;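 further: Viability-based readout of growth inhibition in SiHa cells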
Description: SANGER: Inhibition of human SiHa cell growth in a cell viability assay.

COLO-678 = conditions: Homo sapiens, COLO-678
Description: SANGER: Inhibition of human COLO-678 cell growth in a cell viability assay.

FTC-133 = conditions: Homo sapiens, FTC-133
OE19 = conditions: Homo sapiens, OE19;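 further: growth inhibition of OE19 cells, measured through a cell viability read-out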
Description: SANGER: Inhibition of human OE19 cell growth in a cell viability assay.

NCI-H2347 = conditions: Homo sapiens, NCI-H2347;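 further: growth inhibition of the cell line, read out with a cell viability assay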
Description: SANGER: Inhibition of human NCI-H2347 cell growth in a cell viability assay.

Capan-2 = conditions: Homo sapiens, Capan-2;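 further: Capan-2 cell growth inhibition, read out with a viability assay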
Description: SANGER: Inhibition of human Capan-2 cell growth in a cell viability assay.

HCC1395 = conditions: Homo sapiens, HCC1395;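 further: growth inhibition of HCC1395 cells, read out by a cell viability assay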
Description: SANGER: Inhibition of human HCC1395 cell growth in a cell viability assay.

HCC1806 = conditions: Homo sapiens, HCC1806;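 further: growth inhibition of the cancer cell line, determined with a cell viability assay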
Description: SANGER: Inhibition of human HCC1806 cell growth in a cell viability assay.

SW626 = conditions: Homo sapiens, SW626;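 further: growth inhibition of SW626 cells, measured with a cell viability assay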
Description: SANGER: Inhibition of human SW626 cell growth in a cell viability assay.

DBTRG-05MG = conditions: Homo sapiens, DBTRG-05MG;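 further: cell viability assay measuring growth inhibition of human DBTRG-05MG cells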
Description: SANGER: Inhibition of human DBTRG-05MG cell growth in a cell viability assay.

KYSE-270 = conditions: Homo sapiens, KYSE-270;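 further: cell growth inhibition measured with a viability assay in the human KYSE-270 line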
Description: SANGER: Inhibition of human KYSE-270 cell growth in a cell viability assay.

NCI-H810 = conditions: Homo sapiens, NCI-H810;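 further: IC50 reflects inhibition of cancer cell line growth, read out with a cell viability assay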
Description: SANGER: Inhibition of human NCI-H810 cell growth in a cell viability assay.

D-542MG = conditions: Homo sapiens, D-542MG
Description: SANGER: Inhibition of human D-542MG cell growth in a cell viability assay.

M059J = conditions: Homo sapiens, M059J;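 further: growth inhibition of M059J cells, read out with a cell viability assay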
Description: SANGER: Inhibition of human M059J cell growth in a cell viability assay.

UACC-62 = conditions: Homo sapiens, UACC-62;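 further: growth inhibition of human UACC-62 cells, read out by a cell viability assay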
Description: SANGER: Inhibition of human UACC-62 cell growth in a cell viability assay.

A-375 = conditions: Homo sapiens, A-375;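 further: growth inhibition of A375 cells, read out with a cell viability assay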
Description: SANGER: Inhibition of human A375 cell growth in a cell viability assay.

CAL-54 = conditions: Homo sapiens, CAL-54;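 further: growth inhibition of CAL-54 cells, read out by a viability measurement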
Description: SANGER: Inhibition of human CAL-54 cell growth in a cell viability assay.

SAS = conditions: Homo sapiens, SAS;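 further: growth inhibition of SAS cells, read out with a cell viability assay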
Description: SANGER: Inhibition of human SAS cell growth in a cell viability assay.

HuP-T3 = conditions: Homo sapiens, HuP-T3;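 further: HuP-T3 cell growth inhibition, read out with a cell viability assay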
Description: SANGER: Inhibition of human HuP-T3 cell growth in a cell viability assay.

EGI-1 = conditions: Homo sapiens, EGI-1;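 further: cell viability readout used to gauge growth inhibition of EGI-1 cells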
Description: SANGER: Inhibition of human EGI-1 cell growth in a cell viability assay.

SMILES | IC50 (A204) [nM] | IC50 (NCI-H2291) [nM] | IC50 (T-24) [nM] | IC50 (SNU-423) [nM] | IC50 (KYSE-510) [nM] | IC50 (PA-1) [nM] | IC50 (VMRC-RCZ) [nM] | IC50 (MDA-MB-157) [nM] | IC50 (MEL-JUSO) [nM] | IC50 (NCI-H1623) [nM] | IC50 (WM-115) [nM] | IC50 (OAW-28) [nM] | IC50 (SW948) [nM] | IC50 (HN) [nM] | IC50 (CFPAC-1) [nM] | IC50 (KU-19-19) [nM] | IC50 (AU565) [nM] | IC50 (ASPC1) [nM] | IC50 (C32) [nM] | IC50 (SiHa) [nM] | other results
CO[C@H]1C[C@@H]2CC[C@@H](C)[C@@](O)(O2)C(=O)C(=O)N2CCCC[C@H]2C(=O)O[C@H]([C@H](C)C[C@@H]2CC[C@@H](OC(=O)C(C)(CO)CO)[C@H](OC)C2)CC(=O)[C@H](C)/C=C(\C)[C@@H](O)[C@@H](OC)C(=O)[C@H](C)C[C@H](C)/C=C/C=C/C=C/1C [TEMSIROLIMUS] | 38.9 | > 200 | 13.9 | 173 | > 200 | 1.47 | > 200 | > 200 | 66.6 | > 200 | > 200 | > 200 | > 200 | > 200 | > 200 | > 200 | > 200 | > 200 | 46.6 | > 200 | IC50 (ME-180): 109 nM; IC50 (COLO-678): > 200 nM; IC50 (FTC-133): 50.6 nM; IC50 (OE19): > 200 nM; IC50 (NCI-H2347): > 200 nM; IC50 (Capan-2): > 200 nM; IC50 (HCC1395): > 200 nM; IC50 (HCC1806): > 200 nM; IC50 (SW626): > 200 nM; IC50 (DBTRG-05MG): > 200 nM; IC50 (KYSE-270): 164 nM; IC50 (NCI-H810): > 200 nM; IC50 (D-542MG): 77.9 nM; IC50 (M059J): 118 nM; IC50 (UACC-62): > 200 nM; IC50 (A-375): > 200 nM; IC50 (CAL-54): 118 nM; IC50 (SAS): > 200 nM; IC50 (HuP-T3): > 200 nM; IC50 (EGI-1): 22 nM
CS(=O)(=O)c1ccc(C(=O)Nc2ccc(Cl)c(-c3ccccn3)c2)c(Cl)c1 [VISMODEGIB] | > 10000 | > 10000 | > 10000 | > 10000 | > 10000 | > 10000 | > 10000 | > 10000 | > 10000 | > 10000 | > 10000 | > 10000 | > 10000 | > 10000 | > 10000 | > 10000 | > 10000 | > 10000 | > 10000 | > 10000 | IC50 (ME-180): > 10000 nM; IC50 (COLO-678): > 10000 nM; IC50 (FTC-133): > 10000 nM; IC50 (OE19): > 10000 nM; IC50 (NCI-H2347): > 10000 nM; IC50 (Capan-2): > 10000 nM; IC50 (HCC1395): > 10000 nM; IC50 (HCC1806): > 10000 nM; IC50 (SW626): > 10000 nM; IC50 (DBTRG-05MG): > 10000 nM; IC50 (KYSE-270): > 10000 nM; IC50 (NCI-H810): > 10000 nM; IC50 (D-542MG): 1870 nM; IC50 (M059J): > 10000 nM; IC50 (UACC-62): > 10000 nM; IC50 (A-375): > 10000 nM; IC50 (CAL-54): > 10000 nM; IC50 (SAS): > 10000 nM; IC50 (HuP-T3): > 10000 nM; IC50 (EGI-1): > 10000 nM
Nc1cccc2c1CN(C1CCC(=O)NC1=O)C2=O (centres undefined) [LENALIDOMIDE] | > 5000 | > 5000 | > 5000 | > 5000 | > 5000 | > 5000 | > 5000 | > 5000 | > 5000 | > 5000 | > 5000 | > 5000 | > 5000 | > 5000 | > 5000 | > 5000 | > 5000 | > 5000 | > 5000 | > 5000 | IC50 (ME-180): > 5000 nM; IC50 (COLO-678): > 5000 nM; IC50 (FTC-133): > 5000 nM; IC50 (OE19): > 5000 nM; IC50 (NCI-H2347): > 5000 nM; IC50 (Capan-2): > 5000 nM; IC50 (HCC1395): > 5000 nM; IC50 (HCC1806): > 5000 nM; IC50 (SW626): > 5000 nM; IC50 (DBTRG-05MG): > 5000 nM; IC50 (KYSE-270): > 5000 nM; IC50 (NCI-H810): > 5000 nM; IC50 (D-542MG): > 5000 nM; IC50 (M059J): > 5000 nM; IC50 (UACC-62): > 5000 nM; IC50 (A-375): > 5000 nM; IC50 (CAL-54): > 5000 nM; IC50 (SAS): > 5000 nM; IC50 (HuP-T3): > 5000 nM; IC50 (EGI-1): > 5000 nM
CC(C)c1ccccc1Cc1cc(C(=O)Nc2ccc(S(=O)(=O)c3ccccc3C(C)(C)C)cc2)c(O)c(O)c1O | 97.8 | 21000 | 295 | 325 | 222 | 134 | 7750 | 841 | 439 | 595 | 1210 | 294 | 32700 | 231 | 522 | 440 | 353 | 973 | 2020 | 261 | IC50 (COLO-678): 3310 nM; IC50 (FTC-133): 607 nM; IC50 (OE19): 5980 nM; IC50 (NCI-H2347): 1220 nM; IC50 (Capan-2): 6040 nM; IC50 (HCC1395): 7110 nM; IC50 (HCC1806): 1430 nM; IC50 (SW626): 423 nM; IC50 (DBTRG-05MG): 1460 nM; IC50 (KYSE-270): 1080 nM; IC50 (NCI-H810): 666 nM; IC50 (D-542MG): 462 nM; IC50 (M059J): 1300 nM; IC50 (UACC-62): 34.4 nM; IC50 (A-375): 88.8 nM; IC50 (CAL-54): 161 nM; IC50 (SAS): 33.2 nM; IC50 (HuP-T3): 1290 nM; IC50 (EGI-1): 1250 nM
